Measurements from patent US9133162B2, “Substituted quinoline compounds and methods of use” (SUNSHINE LAKE PHARMA CO., LTD., priority 2011, dated 2015).
Entries after “also recorded” stand apart in the source; their conditions may differ. One block for each compound: values may come before it.

Key:
c-Met (h) = c-Met (h) (Homo sapiens (Human), UniProt P08581); test: c-Met (h) kinase assay (33P-ATP filter, Millipore); format: biochemical
U87MG glioblastoma cells = test: U87MG tumor xenograft model, TGI; format: in vivo, athymic nude mice; conditions: 10 mg/kg p.o. QD, 16 days
Protocol: (§1) The efficacy of compounds disclosed herein was evaluated in a standard murine model of tumorigenesis. Human tumor cells (U87MG glioblastoma cells, MKN45 Gastric Adenocarcinoma cells, Caki-1 renal carcinoma cells, HUH 7 hepatocarcinoma cells, NCI-H441 lung adenocarcinoma epithelial cells, MDA-MB-231 breast adenocarcinoma cells, SMMC-7721 hepatoma cells, all from ATCC) were expended in culture, harvested, and injected subcutaneously onto the rear flank of 6-7 week old female athymic nude mice (BALB/cA nu/nu, Shanghai SLAC Laboratory Animal, Co.) (n=10 for vehicle group, n=8 for each dosing group). When tumors reached a volume of 100-250 mm^3, animals were randomly divided into vehicle control (for example, 2% HPMC+1% Tween-80 in water) and compound groups. […]
(§2) Progression of tumor growth is assessed by tumor volumes and recorded as a function of time. The long (L) and short (W) axes of the subcutaneous tumors were measured with calipers twice weekly, and the tumor volume (TV) calculated as (L×W^2)/2). TGI was calculated from the difference between the median tumor volumes of vehicle-treated and drug-treated mice, expressed as a percentage of the median tumor volume of the vehicle-treated control group, by the following relation: […]

Axl (h) = Axl (h) (Homo sapiens (Human), UniProt P30530); test: Axl (h) kinase assay; format: biochemical
Protocol: Compound dilutions are performed in DMSO and added to assay wells to a final DMSO concentration of 1%. Each data point is measured in duplicate, and at least two duplicate assays are performed for each individual compound determination. Enzyme is added to final concentrations of 10 nM or 20 nM, for example.
The above assay procedure can be used to determine the IC50 for inhibition and/or the inhibition constant, Ki.
(specific activity approx. 500 cpm/pmol, concentration as required). The reaction is initiated by the addition of the MgATP mix. After incubation for 40 minutes at room temperature, the reaction is stopped by the addition of 3% phosphoric acid solution. 10 μL of the reaction is then spotted onto a P30 filtermat and washed three times for 5 minutes in 75 mM phosphoric acid and once in methanol prior to drying and scintillation counting.

human VEGF-R2 = human VEGF-R2 (Homo sapiens (Human), UniProt P35968); test: VEGF-R2 cellular phosphorylation assay in HUE cells (Sandwich-ELISA); format: cell-based; conditions: VEGF-A stimulated
Protocol: (§3) The autophosphorylation level was determined Sandwich-ELISA technique.
VEGF-R2 Phosphorylation Assay:
Immortalized human umbilical vein endothelial cells (HUE) are known to overexpress human VEGF-R2. Stimulation of these cells with its physiological ligand VEGF-A results in a robust receptor autophosphorylation. Compounds are preincubated before cell stimulation to allow thorough target binding. Stimulation conditions are optimized to determine dose-related inhibition of the phospho-VEGF-R2 signal, which is subsequently quantified by Sandwich-ELISA technique. The assay is validated based on known inhibitors of VEGF-R2 kinase activity.

[1] = test system: MKN45 Gastric Adenocarcinoma cells; test: MKN45 tumor xenograft model, TGI; format: in vivo, athymic nude mice; conditions: 20 mg/kg p.o. QD, 16 days
Protocol: as §1, §2

c-Met = c-Met (Homo sapiens (Human), UniProt P08581); test: cell-based
Protocol: The autophosphorylation level was determined Sandwich-ELISA technique. IC50 values are determined by testing 8 compound concentrations in semi-logarithmic steps (each concentration in duplicates). The steps of the cellular phosphorylation assay are illustrated in FIG. 1.
c-Met Phosphorylation Assay:
The human gastric adenocarcinoma cell line MKN45 is known to overexpress c-Met. c-Met overexpression results in a constitutive, ligand-independent autophosphorylation of the kinase. […] Phospho-MET signal is subsequently quantified by Sandwich-ELISA technique. The assay is validated based on known inhibitors of MET kinase activity.

[2] = test system: HUH 7 hepatocarcinoma cells; test: Huh-7 tumor xenograft model, TGI; format: in vivo, athymic nude mice; conditions: 20 mg/kg p.o. QD, 14 days
Protocol: as §1, §2

KDR (h) (VEGF-R2(h)) = KDR (h) (VEGF-R2(h)) (Homo sapiens (Human), UniProt P35968); test: KDR (h) (VEGF-R2(h)) kinase assay; format: biochemical
Protocol: Kinase assays can be performed by measurement of incorporation of —^33P ATP into immobilized myelin basic protein (MBP). High binding white 384 well plates (Greiner) are coated with MBP (Sigma #M-1891) by incubation of 60 μl/well of 20 μg/ml MBP in Tris-buffered saline (TBS; 50 mM Tris pH 8.0, 138 mM NaCl, 2.7 mM KCl) for 24 hours at 4° C. Plates are washed 3× with 100 μl TBS. Kinase reactions are carried out in a total volume of 34 μl in kinase buffer (5 mM Hepes pH 7.6, 15 mM NaCl, 0.01% bovine gamma globulin (Sigma #I-5506), 10 mM MgCl2, 1 mM DTT, 0.02% TritonX-100). Compound dilutions are performed in DMSO and added to assay wells to a final DMSO concentration of 1%. Each data point is measured in duplicate, and at least two duplicate assays are performed for each individual compound determination. Enzyme is added to final concentrations of 10 nM or 20 nM, for example. A mixture of unlabeled ATP and —^33P ATP is added to start the reaction (2×10^6 cpm of —^33P ATP per well (3000 Ci/mmole) and 10 μM unlabeled ATP, typically. The reactions are carried out for 1 hour at room temperature with shaking. Plates are washed 7× with TBS, followed by the addition of 50 μl/well scintillation fluid (Wallac). Plates are read using a Wallac Trilux counter. This is only one format of such assays; various other formats are possible, as known to one skilled in the art.
The above assay procedure can be used to determine the IC50 for inhibition and/or the inhibition constant, Ki. The IC50 is defined as the concentration of compound required to reduce the enzyme activity by 50% under the condition of the assay. The IC50 value is estimated by preparing a 10 point curve using a log dilution series (for example, a typical curve may be prepared using the following compound concentrations; 100 μM, 30 μM, 10 μM, 3 μM, 1 μM, 0.3 μM, 0.1 μM, 0.03 μM, 0.01 μM and […]).
The kinase assays described herein were performed at Millipore UK Ltd, Dundee Technology Park, Dundee DD2 1SW, UK
KDR (h) (VEGF-R2(h)) Assay […]

[3] = test system: NCI-H441 lung adenocarcinoma epithelial cells; test: NCI-H441 tumor xenograft model, TGI; format: in vivo, athymic nude mice; conditions: 20 mg/kg p.o. QD, 21 days
Protocol: as §1, §2

AXL = AXL (Homo sapiens (Human), UniProt P30530); test: Axl cellular phosphorylation assay in transfected MEF cells (Sandwich-ELISA); format: cell-based; conditions: MEF cells expressing full-length AXL
Protocol: as §3
Axl Phosphorylation Assay:
Cellular AXL phosphorylation assay was generated on a mouse embryonal fibroblast (MEF) background. Cells were transfected to express a full-length AXL protein. […] PhosphoAXL levels are quantified by Sandwich-ELISA technique.

[4] = test system: MDA-MB-231 breast adenocarcinoma cells; test: MDA-MB-231 tumor xenograft model, TGI; format: in vivo, athymic nude mice; conditions: for TGI % (on last day of dosing) MDA-MB-231: 21 days (Day 21); for inhibition of growth of MDA-MB-231 xenograft tumors (in words): 10, 20 and 40 mg/kg p.o. QD, 21 days
Protocol: The efficacy of compounds disclosed herein was evaluated in a standard murine model of tumorigenesis. Human tumor cells (U87MG glioblastoma cells, MKN45 Gastric Adenocarcinoma cells, Caki-1 renal carcinoma cells, HUH 7 hepatocarcinoma cells, NCI-H441 lung adenocarcinoma epithelial cells, MDA-MB-231 breast adenocarcinoma cells, SMMC-7721 hepatoma cells, all from ATCC) were expended in culture, harvested, and injected subcutaneously onto the rear flank of 6-7 week old female athymic nude mice (BALB/cA nu/nu, Shanghai SLAC Laboratory Animal, Co.) (n=10 for vehicle group, n=8 for each dosing group). When tumors reached a volume of 100-250 mm^3, animals were randomly divided into vehicle control (for example, 2% HPMC+1% Tween-80 in water) and compound groups. Subsequent administration of compound by oral gavage (for example, 3-50 mpk/dose, dissolved in 2% HPMC+1% Tween-80 in water) begins anywhere from day 0 to day 15 post tumor cell challenge and generally continues with once a day for the duration of the experiment. The studies using tumor xenograft animal models described herein were performed at Shanghai Institute of Materia Medica, Chinese Academy of Sciences, 555 Zu Chong Zhi Road, Zhang Jiang Hi-Tech Park, Pudong, Shanghai, 201203, China.
Progression of tumor growth is assessed by tumor volumes and recorded as a function of time. The long (L) and short (W) axes of the subcutaneous tumors were measured with calipers twice weekly, and the tumor volume (TV) calculated as (L×W^2)/2). TGI was calculated from the difference between the median tumor volumes of vehicle-treated and drug-treated mice, expressed as a percentage of the median tumor volume of the vehicle-treated control group, by the following relation:
Initial statistical analysis is done by repeated measures analysis of variance (RMANOVA). Followed by Scheffe psot hoc testing for multiple comparisons. Vehicle alone (2% HPMC+1% Tween-80, or the like) is the negative control.
FIG. 2 illustrates the tumor growth inhibition effects of Example 1 in MDA-MB-231 breast adenocarcinoma model. Example 1 was administrated orally (p.o.) at doses of 10, 20 and 40 mg/kg once a day (QD), for 21 consecutive days.
FIG. 3 illustrates the tumor growth inhibition effects of Example 2 in MDA-MB-231 breast adenocarcinoma model. Example 2 was administrated orally (p.o.) at doses of 10, 20 and 40 mg/kg once a day (QD), for 21 consecutive days.

[5] = test system: Caki-1 renal carcinoma cells; test: Caki-1 tumor xenograft model, TGI; format: in vivo, athymic nude mice; conditions: 20 mg/kg p.o. QD, 21 days
Protocol: as §1, §2

KDR (h) (VEGF-R2(h)), sequence (P35968 20-1356): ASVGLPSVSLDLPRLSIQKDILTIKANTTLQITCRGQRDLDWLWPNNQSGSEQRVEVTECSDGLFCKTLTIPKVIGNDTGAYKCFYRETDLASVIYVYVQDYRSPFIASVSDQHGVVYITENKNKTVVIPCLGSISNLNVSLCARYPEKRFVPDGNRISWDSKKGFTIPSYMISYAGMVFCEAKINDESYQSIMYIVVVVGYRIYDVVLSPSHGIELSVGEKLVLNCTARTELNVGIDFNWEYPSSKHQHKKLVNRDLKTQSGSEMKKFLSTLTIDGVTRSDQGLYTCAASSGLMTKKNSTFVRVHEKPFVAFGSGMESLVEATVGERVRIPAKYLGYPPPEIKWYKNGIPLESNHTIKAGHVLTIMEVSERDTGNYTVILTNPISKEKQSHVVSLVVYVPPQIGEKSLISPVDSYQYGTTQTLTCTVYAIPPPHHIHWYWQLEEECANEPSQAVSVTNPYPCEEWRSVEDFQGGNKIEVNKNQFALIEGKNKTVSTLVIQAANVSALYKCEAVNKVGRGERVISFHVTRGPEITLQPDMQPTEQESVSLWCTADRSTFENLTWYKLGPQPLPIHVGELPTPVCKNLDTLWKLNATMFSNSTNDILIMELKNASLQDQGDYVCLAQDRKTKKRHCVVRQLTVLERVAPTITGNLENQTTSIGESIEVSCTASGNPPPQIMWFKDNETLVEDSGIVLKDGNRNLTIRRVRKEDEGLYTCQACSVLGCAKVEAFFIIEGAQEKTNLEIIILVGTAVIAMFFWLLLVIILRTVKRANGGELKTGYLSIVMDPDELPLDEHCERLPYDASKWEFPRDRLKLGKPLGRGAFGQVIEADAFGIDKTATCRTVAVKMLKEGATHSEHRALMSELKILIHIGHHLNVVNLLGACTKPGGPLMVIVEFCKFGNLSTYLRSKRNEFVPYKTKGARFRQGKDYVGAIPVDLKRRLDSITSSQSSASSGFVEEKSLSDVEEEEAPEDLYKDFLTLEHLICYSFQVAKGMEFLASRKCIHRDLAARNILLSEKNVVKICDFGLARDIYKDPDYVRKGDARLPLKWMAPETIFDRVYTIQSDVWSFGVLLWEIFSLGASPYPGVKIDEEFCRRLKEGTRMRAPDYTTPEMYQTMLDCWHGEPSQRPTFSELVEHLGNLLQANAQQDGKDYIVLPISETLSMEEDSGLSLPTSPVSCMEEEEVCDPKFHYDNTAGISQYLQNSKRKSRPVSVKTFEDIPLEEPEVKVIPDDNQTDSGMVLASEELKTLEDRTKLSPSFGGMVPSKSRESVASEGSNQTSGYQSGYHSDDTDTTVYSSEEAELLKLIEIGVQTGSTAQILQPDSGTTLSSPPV
c-Met (h), sequence (P08581 25-1390): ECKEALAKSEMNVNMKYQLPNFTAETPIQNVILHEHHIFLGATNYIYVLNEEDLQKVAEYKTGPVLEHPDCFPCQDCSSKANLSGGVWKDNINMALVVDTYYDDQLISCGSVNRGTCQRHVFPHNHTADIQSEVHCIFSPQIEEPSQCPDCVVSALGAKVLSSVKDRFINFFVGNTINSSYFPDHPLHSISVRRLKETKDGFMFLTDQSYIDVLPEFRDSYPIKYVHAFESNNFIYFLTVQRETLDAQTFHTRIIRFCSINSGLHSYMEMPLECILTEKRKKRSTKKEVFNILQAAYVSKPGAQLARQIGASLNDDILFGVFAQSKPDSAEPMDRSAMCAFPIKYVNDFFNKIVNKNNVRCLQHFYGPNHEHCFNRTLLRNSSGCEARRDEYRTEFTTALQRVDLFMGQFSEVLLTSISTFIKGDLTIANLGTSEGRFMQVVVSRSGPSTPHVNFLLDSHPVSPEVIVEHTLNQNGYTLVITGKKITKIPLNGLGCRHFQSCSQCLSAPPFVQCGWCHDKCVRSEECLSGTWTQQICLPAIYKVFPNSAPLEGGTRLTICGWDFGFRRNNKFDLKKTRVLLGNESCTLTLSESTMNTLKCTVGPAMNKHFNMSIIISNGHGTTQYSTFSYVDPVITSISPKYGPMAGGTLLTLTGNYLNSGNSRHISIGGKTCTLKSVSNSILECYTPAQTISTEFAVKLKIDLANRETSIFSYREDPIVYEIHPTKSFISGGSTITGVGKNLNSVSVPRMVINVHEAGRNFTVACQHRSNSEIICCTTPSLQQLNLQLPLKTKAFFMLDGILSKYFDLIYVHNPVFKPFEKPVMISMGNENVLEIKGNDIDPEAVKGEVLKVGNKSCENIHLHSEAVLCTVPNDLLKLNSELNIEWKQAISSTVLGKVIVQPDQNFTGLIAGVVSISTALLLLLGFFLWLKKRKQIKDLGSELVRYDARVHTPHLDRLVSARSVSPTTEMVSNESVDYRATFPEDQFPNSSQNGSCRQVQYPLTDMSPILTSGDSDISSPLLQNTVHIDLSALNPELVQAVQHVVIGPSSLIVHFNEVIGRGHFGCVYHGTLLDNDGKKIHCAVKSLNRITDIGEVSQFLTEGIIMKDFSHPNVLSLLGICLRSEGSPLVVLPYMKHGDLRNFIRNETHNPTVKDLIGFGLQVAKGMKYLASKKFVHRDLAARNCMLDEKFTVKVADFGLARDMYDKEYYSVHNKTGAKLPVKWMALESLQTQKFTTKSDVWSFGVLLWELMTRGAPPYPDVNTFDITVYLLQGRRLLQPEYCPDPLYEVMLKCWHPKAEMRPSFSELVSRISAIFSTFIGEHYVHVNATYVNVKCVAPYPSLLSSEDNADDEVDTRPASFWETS
AXL, sequence (P30530 26-894): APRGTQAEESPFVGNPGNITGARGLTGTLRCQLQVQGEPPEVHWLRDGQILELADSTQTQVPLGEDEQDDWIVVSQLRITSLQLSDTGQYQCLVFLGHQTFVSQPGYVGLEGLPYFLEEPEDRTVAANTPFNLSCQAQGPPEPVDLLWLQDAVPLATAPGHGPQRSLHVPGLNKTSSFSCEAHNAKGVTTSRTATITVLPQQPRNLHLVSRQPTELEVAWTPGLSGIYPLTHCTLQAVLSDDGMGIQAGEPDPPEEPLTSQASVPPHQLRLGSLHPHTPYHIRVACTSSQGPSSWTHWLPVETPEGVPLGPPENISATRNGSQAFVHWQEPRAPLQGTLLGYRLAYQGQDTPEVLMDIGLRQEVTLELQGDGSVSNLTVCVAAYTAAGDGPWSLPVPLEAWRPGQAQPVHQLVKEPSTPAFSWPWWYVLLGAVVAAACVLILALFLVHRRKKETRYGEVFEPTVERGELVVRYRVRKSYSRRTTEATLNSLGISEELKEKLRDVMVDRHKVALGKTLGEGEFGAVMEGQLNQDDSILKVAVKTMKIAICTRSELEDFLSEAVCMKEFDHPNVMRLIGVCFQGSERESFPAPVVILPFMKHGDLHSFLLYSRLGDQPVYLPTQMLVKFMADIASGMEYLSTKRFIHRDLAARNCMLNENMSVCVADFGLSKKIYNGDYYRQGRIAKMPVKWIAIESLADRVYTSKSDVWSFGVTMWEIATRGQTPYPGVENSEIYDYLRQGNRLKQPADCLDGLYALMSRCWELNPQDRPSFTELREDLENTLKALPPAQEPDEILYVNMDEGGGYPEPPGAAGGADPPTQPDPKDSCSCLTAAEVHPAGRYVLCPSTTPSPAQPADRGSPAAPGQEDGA
Axl (h), sequence (P30530 26-894): as above
human VEGF-R2, sequence (P35968 20-1356): as the sequence (P35968 20-1356) above
c-Met, sequence (P08581 25-1390): as the sequence (P08581 25-1390) above

IC50 (c-Met (h)): 27 nM
SMILES: Cc1c(C(=O)Nc2ccc(Oc3ccnc4cc(OC(C)(C)CO)ccc34)c(F)c2)c(=O)n(-c2ccccc2)n1C [Example 14, N-(3-fluoro-4-((7-((1-hydroxy-2-methylpropan-2-yl)oxy)quinolin-4-yl)oxy)phenyl)-1,5-dimethyl-3-oxo-2-phenyl-2,3-dihydro-1H-pyrazole-4-carboxamide]

IC50 (c-Met (h)): 15 nM
SMILES: Cc1c(C(=O)Nc2ccc(Oc3ccnc4cc(OC[C@@H](C)O)ccc34)cc2)c(=O)n(-c2ccccc2)n1C [Example 11, (R)—N-(4-((7-(2-hydroxypropoxy)quinolin-4-yl)oxy)phenyl)-1,5-dimethyl-3-oxo-2-phenyl-2,3-dihydro-1H-pyrazole-4-carboxamide]

IC50 (c-Met (h)): 13 nM
SMILES: Cc1c(C(=O)Nc2ccc(Oc3ccnc4cc(OC[C@H](C)O)ccc34)cc2)c(=O)n(-c2ccccc2)n1C [Example 12, (S)—N-(4-((7-(2-hydroxypropoxy)quinolin-4-yl)oxy)phenyl)-1,5-dimethyl-3-oxo-2-phenyl-2,3-dihydro-1H-pyrazole-4-carboxamide]

IC50 (c-Met (h)): 13 nM
SMILES: Cc1c(C(=O)Nc2ccc(Oc3ccnc4cc(OCC(C)(C)O)ccc34)cc2)c(=O)n(-c2ccccc2)n1C [Example 9, N-(4-((7-(2-hydroxy-2-methylpropoxy)quinolin-4-yl)oxy)phenyl)-1,5-dimethyl-3-oxo-2-phenyl-2,3-dihydro-1H-pyrazole-4-carboxamide]
TGI % (on last day of dosing) U87MG (U87MG glioblastoma cells): 97%

SMILES: Cc1c(C(=O)Nc2ccc(Oc3ccnc4cc(OCC(C)(C)O)ccc34)c(F)c2)c(=O)n(-c2ccccc2)n1C [Example 1, N-(3-fluoro-4-((7-(2-hydroxy-2-methylpropoxy)quinolin-4-yl)oxy)phenyl)-1,5-dimethyl-3-oxo-2-phenyl-2,3-dihydro-1H-pyrazole-4-carboxamide]
IC50 (Axl (h)): 11 nM
IC50 (human VEGF-R2): 1.7 nM
TGI % (on last day of dosing) MKN45 [1]: 97%
IC50 (c-Met (h)): 19 nM
IC50 (c-Met): 6.9 nM
TGI % (on last day of dosing) Huh-7 [2]: 53%
IC50 (KDR (h) (VEGF-R2(h))): 37 nM
TGI % (on last day of dosing) NCI-H441 [3]: 97%
IC50 (AXL): < 1 nM
TGI % (on last day of dosing) MDA-MB-231 ([4]; 10 mg/kg p.o. QD): 97%
TGI % (on last day of dosing) MDA-MB-231 ([4]; 20 mg/kg p.o. QD): 112%
TGI % (on last day of dosing) MDA-MB-231 ([4]; 40 mg/kg p.o. QD): 120%
inhibition of growth of MDA-MB-231 xenograft tumors (in words) [4]: inhibited the growth; also recorded: statistically significant, dose-dependent inhibition
TGI % (on last day of dosing) U87MG (U87MG glioblastoma cells): 98%
TGI % (on last day of dosing) Caki-1 [5]: 87%

IC50 (c-Met (h)): 10 nM
IC50 (KDR (h) (VEGF-R2(h))): 40 nM
SMILES: COc1cc2c(Oc3ccc(NC(=O)c4c(C)n(C)n(-c5ccccc5)c4=O)cc3F)ccnc2cc1OCC(C)(C)O [Example 4, N-(3-fluoro-4-((7-(2-hydroxy-2-methylpropoxy)-6-methoxyquinolin-4-yl)oxy)phenyl)-1,5-dimethyl-3-oxo-2-phenyl-2,3-dihydro-1H-pyrazole-4-carboxamide]

IC50 (c-Met (h)): 7 nM
IC50 (KDR (h) (VEGF-R2(h))): 23 nM
SMILES: Cc1c(C(=O)Nc2ccc(Oc3ccnc4cc(OC[C@@H](C)O)ccc34)c(F)c2)c(=O)n(-c2ccccc2)n1C [Example 2, (R)—N-(3-fluoro-4-((7-(2-hydroxypropoxy)quinolin-4-yl)oxy)phenyl)-1,5-dimethyl-3-oxo-2-phenyl-2,3-dihydro-1H-pyrazole-4-carboxamide]
TGI % (on last day of dosing) MKN45 [1]: 22%
TGI % (on last day of dosing) MDA-MB-231 ([4]; 10 mg/kg p.o. QD): 72%
TGI % (on last day of dosing) MDA-MB-231 ([4]; 20 mg/kg p.o. QD): 87%
TGI % (on last day of dosing) MDA-MB-231 ([4]; 40 mg/kg p.o. QD): 96%
inhibition of growth of MDA-MB-231 xenograft tumors (in words) [4]: inhibited the growth; also recorded: statistically significant, dose-dependent inhibition
